What all share (assay type): physicochemical
Series [1] can be described thus: Decolorization of Rhodamine B solution monitored with UV-Vis spectroscopy. Particulars: 125 ppm RhB solution (Example 2 conditions). The source says:
UV-Vis spectroscopy: 1800 UV spectrophotometer, Shimadzu, Japan.
Rhodamine B (RhB) is a water-soluble chemical dye which is commonly used as a benchmark to assess the potency of oxidants to decompose organic pollutants in aqueous solution and measure the rate of degradation. De-colorization of RhB solution, that is, the disappearance of the characteristic intense pink color, is readily visible as the decomposition of the dye advances under the action of the tested oxidant and the oxidation reaction can be monitored with UV-Vis spectroscopy. […] Decolorization of 1000 ppm and 125 ppm RhB solutions was completed within eleven minutes and two minutes, respectively, i.e., well before the end of the experiments.

Series [2] in a line: Degradation of carbamazepine by sodium hydroxide and hydrogen peroxide with phase transfer catalyst and added oxygen (LC-MS). As to the method: A 50 ml round bottom flask equipped with a magnetic stirrer was charged with 10 ml of water polluted with 1-100 ppm of carbamazepine (concentrations of 1, 10 and 100 ppm were examined). Sodium hydroxide (0.5 g) was rapidly added followed by addition of 0.02 ml of a phase transfer catalyst (Aliquat 336) Next, 1 ml of aqueous hydrogen peroxide (30% solution) was introduced over 5 minutes. After the addition of hydrogen peroxide, the mixture was held under stirring and pure oxygen was bubbled to the system at a flow rate of 0.5 ml/min over 10 minutes. For each experiment, at the end of the process the final reaction mixture was extracted with 5 ml of Acetone: hexane solution (1:1) and carbamazepine remnant concentration was measured by LC-MS, QTOF 6520, manufactured by Agilent.

Series [3] is described as follows: Degradation of xylene by sodium hydroxide and hydrogen peroxide with Aliquat 336, with and without added oxygen (GC-FID). As to the method:
Experiment A: In the reference experiment, a 50 ml round bottom flask equipped with a magnetic stirrer was charged with 10 ml of water polluted with 100 ppm of xylene. Sodium hydroxide (0.5 g) was rapidly added followed by addition of 0.02 ml of a phase transfer catalyst (Aliquat 336) Next, 1 ml of aqueous hydrogen peroxide (30% solution) was introduced over 5 minutes. After the addition of hydrogen peroxide solution has been completed, the mixture was held under stirring for ten minutes.
Experiment B: To assess the effect of added oxygen, the procedure set forth above was repeated but after the addition of hydrogen peroxide, pure oxygen was bubbled to the system at a flow rate of 1 ml/min over 30 minutes. Upon completion of O2 addition, the mixture was stirred for ten minutes.
For each experiment, samples (0.5 ml) were taken from the reaction mixture at intervals of one minute during the ten minutes hold time and the concentration of remnant xylene was measured by GC-FID. The final reaction mixture was extracted with dichloromethane (10 ml) and analyzed by GC-FID as previously described.

Take `CCN(CC)c1ccc2c(-c3ccccc3C(=O)O)c3ccc(=[N+](CC)CC)cc-3oc2c1.[Cl-]` [Rhodamine B]: in series [1], the “Time to complete decolorization” value is reported as “two”.
On to `NC(=O)N1c2ccccc2C=Cc2ccccc21` [carbamazepine], for which the conversion rate in series [2] (1 ppm carbamazepine in water) was ~ 70%. Further, the conversion in series [2] (10 ppm carbamazepine in water) and in series [2] (100 ppm carbamazepine in water) was above 90% in each case. This compound displayed a removal rates in series [2] (low pollution level of 1 to 10 ppm) of 70 to 90%.
With Xylene, the “Hold time to reach complete oxidation of the pollutant” value in series [3] (Experiment A: 100 ppm xylene, absence of added oxygen) is listed as “ten”; in series [3] (Experiment B: 100 ppm xylene, with added oxygen 1 ml/min over 30 minutes) it was “about six”.

These data come from patent US20230331601A1, “METHOD FOR WATER PURIFICATION AND SANITIZATION” (YISSUM RESEARCH DEVELOPMENT COMPANY OF THE HEBREW …, priority 2020, published 2023).
